Source: patent publication US5395947A, “Platinum(II) complex and processes for preparing the same” (Sunkyong Industries, Ltd., priority 1991, dated 1995)

Legend:
[1] = test system: murine leukemia L1210 cells; experiment: Growth inhibition test on cultured murine leukemia L1210 cells; format: cell-based; conditions: 48 hours, 37° C., Trypan blue viability
Procedure: 1. Growth inhibition test on cultured murine leukemia L1210 cells
Murine leukemia L1210 cells(1×10^5) were treated with various concentrations of the compounds prepared in the above examples in RPMI 1640 medium supplemented with 10% fetal calf serum, and cultured in a 5% CO2 humidified incubator at 37° C. for 48 hours. Their viability, estimated by staining with 0.17% Trypan blue, was compared with that of control cells cultured in the identical medium without the compounds.

[2] = Test for water solubility; format: physicochemical
Excerpt: 3. Test for water solubility
A standard plot of UV absorbance(220 nm) vs. concentration was made; and employed to determine water-solubility.
The mixture was then passed through a 0.45 micron disposable membrane filter before dilution and UV measurement.

murine leukemia L1210 = experiment: Antitumor activity test on murine leukemia L1210 in vivo; design: species or system male BDF1 mice; conditions: days 1, 5, 9
Procedure: 2. Antitumor activity test on murine leukemia L1210 in vivo
Murine leukemia L1210 cells were maintained in the peritoneal cavities of 6-week-old male DBA/2 mice by weekly transfer in accordance with the procedure described in cancer chemotherapy Reports, Part 3, 3(2), 7 (1972). Specifically, 1×10^6 leukemia cells were inoculated into the abdominal cavities of 6-week-old male BDF1 mice weighing 21±3 g on day 0. Each treatment group consisted of seven mice. The test compounds were dissolved or suspended in 0.5% carboxymethyl cellulose(CMC)solution (in water) and were administered intraperitoneally on days 1, 5, and 9 relative to the tumor inoculation.
Thirty mice of 6-week-old male BDF1 weighing 21±3 g were used as the control group, which were injected with 0.5% CMC solution only in the same manner as above.
Anti-tumor activities of the compounds were evaluated in terms of the T/C % values calculated from the mean survival time(T) of the compound-treated group over that(C) of the control group. [formula]

With `CCCC1OC2C[NH2+][Pt-2]3([NH2+]CC2O1)[O]CC(=O)[O]3` [Example 10, (glycolato-O,O')[(4R,5R)-4,5-bis(aminomethyl)-2-propyl-1,3-dioxolane]platinum(II)] the “IC50 (concentration required for 50% inhibition of growth)” value [1] was 0.13 µg/mL, the Solubility in water ([2]; water) was greater than 30000 µg/mL and the “T/C (%)” value (murine leukemia L1210; 3.1 mg/kg i.p.) was 154%. For the same molecule, the “T/C (%)” value (murine leukemia L1210; 6.2 mg/kg i.p.) was 161%, the “T/C (%)” value (murine leukemia L1210; 12.5 mg/kg i.p.) was 201% and the “T/C (%)” value (murine leukemia L1210; 25 mg/kg i.p.) was “toxic”. For the same molecule, the “T/C (%)” value (murine leukemia L1210; 50 mg/kg i.p.) was “toxic”.
For `CC(C)CC1OC2C[NH2+][Pt-2]3([NH2+]CC2O1)[O]CC(=O)[O]3` [Example 11, (glycolato-O,O')[(4R,5R)-4,5-bis(aminomethyl)-2-isobutyl-1,3-dioxolane]platinum(II)], the “IC50 (concentration required for 50% inhibition of growth)” value [1] was 0.10 µg/mL, the Solubility in water ([2]; water) was 4600 µg/mL and the “T/C (%)” value (murine leukemia L1210; 3.1 mg/kg i.p.) was 102%. For the same molecule, the “T/C (%)” value (murine leukemia L1210; 6.2 mg/kg i.p.) was 146%, the “T/C (%)” value (murine leukemia L1210; 12.5 mg/kg i.p.) was 191% and the “T/C (%)” value (murine leukemia L1210; 25 mg/kg i.p.) was “toxic”. For the same molecule, the “T/C (%)” value (murine leukemia L1210; 50 mg/kg i.p.) was “toxic”.
For `CC(C)(C)C1OC2C[NH2+][Pt-2]3([NH2+]CC2O1)[O]CC(=O)[O]3` [Example 12, (glycolato-O,O')[(4R,5R)-4,5-bis(aminomethyl)-2-tert-butyl-1,3-dioxolane]platinum(II)], the “IC50 (concentration required for 50% inhibition of growth)” value [1] was 0.10 µg/mL, the Solubility in water ([2]; water) was 2100 µg/mL and the “T/C (%)” value (murine leukemia L1210; 3.1 mg/kg i.p.) was 104%. For the same molecule, the “T/C (%)” value (murine leukemia L1210; 6.2 mg/kg i.p.) was 136%, the “T/C (%)” value (murine leukemia L1210; 12.5 mg/kg i.p.) was 154% and the “T/C (%)” value (murine leukemia L1210; 25 mg/kg i.p.) was 167%. The “T/C (%)” value (murine leukemia L1210; 50 mg/kg i.p.) was “toxic”.
For `CC1[O][Pt][O]C1=O.NCC1OC2(CCCCC2)OC1CN` [Example 16, (L-lactato-O,O'){cyclohexanespiro-2'-[(4'R,5'R)-4',5'-bis(aminomethyl)-1',3'-dioxolane]}platinum(II)], the “IC50 (concentration required for 50% inhibition of growth)” value [1] was 0.34 µg/mL, the Solubility in water ([2]; water) was 3800 µg/mL and the “T/C (%)” value (murine leukemia L1210; 12.5 mg/kg i.p.) was 204%. The “T/C (%)” value (murine leukemia L1210; 25 mg/kg i.p.) was 227% and the “T/C (%)” value (murine leukemia L1210; 50 mg/kg i.p.) was “toxic”.
For `CCC1OC2C[NH2+][Pt-2]3([NH2+]CC2O1)[O]C(=O)C1(CCC1)C(=O)[O]3` [Example 25, cis-cyclobutane-1,1-dicarboxylato[(4S,5S)-4,5-bis(aminomethyl)-2-ethyl-1,3-dioxolane]platinum(II)], the “IC50 (concentration required for 50% inhibition of growth)” value [1] was 1.02 µg/mL and the Solubility in water ([2]; 20° C.) was 11800 µg/mL.
For `CC1(C)OC2C[NH2+][Pt-2]3([NH2+]CC2O1)[O]C(=O)C1(CCC1)C(=O)[O]3` [Example 27, cis-cyclobutane-1,1-dicarboxylato[(4S,5S)-4,5-bis(aminomethyl)-2,2-dimethyl-1,3-dioxolane]platinum(II)], the “IC50 (concentration required for 50% inhibition of growth)” value [1] was 2.36 µg/mL, the Solubility in water ([2]; water) was 1900 µg/mL and the “T/C (%)” value (murine leukemia L1210; 6.2 mg/kg i.p.) was 112%. The “T/C (%)” value (murine leukemia L1210; 12.5 mg/kg i.p.) was 106%, the “T/C (%)” value (murine leukemia L1210; 25 mg/kg i.p.) was 124% and the “T/C (%)” value (murine leukemia L1210; 50 mg/kg i.p.) was 148%. For the same molecule, the “T/C (%)” value (murine leukemia L1210; 100 mg/kg i.p.) was 142%.
In the case of `CC(C)C1OC2C[NH2+][Pt-2]3([NH2+]CC2O1)[O]C(=O)C1(CCC1)C(=O)[O]3` [Example 28, cis-cyclobutane-1,1-dicarboxylato[(4R,5R)-4,5-bis(aminomethyl)-2-isopropyl-1,3-dioxolane]platinum(II)], the “IC50 (concentration required for 50% inhibition of growth)” value [1] was 1.14 µg/mL, the Solubility in water ([2]; water) was 2100 µg/mL and the “T/C (%)” value (murine leukemia L1210; 6.2 mg/kg i.p.) was 113%. The “T/C (%)” value (murine leukemia L1210; 12.5 mg/kg i.p.) was 106%, the “T/C (%)” value (murine leukemia L1210; 25 mg/kg i.p.) was 126% and the “T/C (%)” value (murine leukemia L1210; 50 mg/kg i.p.) was 133%. For the same molecule, the “T/C (%)” value (murine leukemia L1210; 100 mg/kg i.p.) was 130%.
For `CC(C)C1OC2C[NH2+][Pt-2]3([NH2+]CC2O1)[O]C(=O)C1(CCC1)C(=O)[O]3` [Example 29, cis-cyclobutane-1,1-dicarboxylato[(4S,5S)-4,5-bis(aminomethyl)-2-isopropyl-1,3-dioxolane]platinum(II)], the “IC50 (concentration required for 50% inhibition of growth)” value [1] was 2.12 µg/mL and the Solubility in water ([2]; 20° C.) was 2000 µg/mL.
In the case of `O=C1[O][Pt-2]2([NH2+]CC3OC4(CCCC4)OC3C[NH2+]2)[O]C(=O)C12CCC2` [Example 31, cis-cyclobutane-1,1-dicarboxylato[(4S,5S)-4,5-bis(aminomethyl)-1,3-dioxolane-2-spiro-1'-cyclopentane]platinum(II)], the “IC50 (concentration required for 50% inhibition of growth)” value [1] was 1.75 µg/mL, the Solubility in water ([2]; water) was 1900 µg/mL and the “T/C (%)” value (murine leukemia L1210; 6.2 mg/kg i.p.) was 102%. The “T/C (%)” value (murine leukemia L1210; 12.5 mg/kg i.p.) was 109%, the “T/C (%)” value (murine leukemia L1210; 25 mg/kg i.p.) was 94% and the “T/C (%)” value (murine leukemia L1210; 50 mg/kg i.p.) was 106%. For the same molecule, the “T/C (%)” value (murine leukemia L1210; 100 mg/kg i.p.) was 117%.
For `O=C1[O][Pt-2]2([NH2+]CC3OC4(CCCCC4)OC3C[NH2+]2)[O]C(=O)C12CCC2` [Example 32, cis-cyclobutane-1,1-dicarboxylato[(4R,5R)-4,5-bis(aminomethyl)-1,3-dioxolane-2-spiro-1'-cyclohexane]platinum(II)], the “IC50 (concentration required for 50% inhibition of growth)” value [1] was 1.05 µg/mL and the Solubility in water ([2]; 20° C.) was 900 µg/mL.
For `CCC1OC2C[NH2+][Pt-2]3([NH2+]CC2O1)[O]C(=O)C(CC)C(=O)[O]3` [Example 43, cis-ethylmalonato[(4R,5R)-4,5-bis(aminomethyl)-2-ethyl-1,3-dioxolane]platinum(II)], the “IC50 (concentration required for 50% inhibition of growth)” value [1] was 0.72 µg/mL, the Solubility in water ([2]; water) was 7900 µg/mL and the “T/C (%)” value (murine leukemia L1210; 25 mg/kg i.p.) was 197%. For the same molecule, the “T/C (%)” value (murine leukemia L1210; 50 mg/kg i.p.) was 245% and the “T/C (%)” value (murine leukemia L1210; 100 mg/kg i.p.) was “toxic”.
For `CCC1C(=O)[O][Pt-2]2([NH2+]CC3OC(C(C)C)OC3C[NH2+]2)[O]C1=O` [Example 44, cis-ethylmalonato[(4R,5R)-4,5-bis(aminomethyl)-2-isopropyl-1,3-dioxolane]platinum(II)], the “IC50 (concentration required for 50% inhibition of growth)” value [1] was 0.47 µg/mL, the Solubility in water ([2]; 20° C.) was 7800 µg/mL and the “T/C (%)” value (murine leukemia L1210; 25 mg/kg i.p.) was 137%. The “T/C (%)” value (murine leukemia L1210; 50 mg/kg i.p.) was 169% and the “T/C (%)” value (murine leukemia L1210; 100 mg/kg i.p.) was 243%.
In the case of `CCC1C(=O)[O][Pt]2([NH]C[C@H]3OC4(CCCC4)O[C@@H]3C[NH]2)[O]C1=O` (stereo partly drawn) [Example 45, cis-ethylmalonato[(4R,5R)-4,5-bis(aminomethyl)-1,3-dioxolane-2-spiro-1'-cyclopentane]platinum (II)], the “IC50 (concentration required for 50% inhibition of growth)” value [1] was 1.40 µg/mL, the Solubility in water ([2]; water) was 2700 µg/mL and the “T/C (%)” value (murine leukemia L1210; 25 mg/kg i.p.) was 147%. For the same molecule, the “T/C (%)” value (murine leukemia L1210; 50 mg/kg i.p.) was 232% and the “T/C (%)” value (murine leukemia L1210; 100 mg/kg i.p.) was 216%.
For `NC[C@@H]1OC2(CCCCC2)O[C@H]1CN.O=C1[O][Pt][O]C(=O)C12CCC2` [Example 46, cis-cyclobutane-1,1-dicarboxylato[(4S, 5S)-4,5-bis(aminomethyl)-1,3-dioxolane-2-spiro-1'-cyclohexane]platinum(II)], the “IC50 (concentration required for 50% inhibition of growth)” value [1] was 2.23 µg/mL and the Solubility in water ([2]; 20° C.) was 900 µg/mL.
In the case of `N.N.O=C([O-])C1(C(=O)[O-])CCC1.[Pt+2]` [carboplatin, reference compound], the “IC50 (concentration required for 50% inhibition of growth)” value [1] was 1.98 µg/mL, the Solubility in water ([2]; water) was 10000 µg/mL and the “T/C (%)” value (murine leukemia L1210; 6.2 mg/kg i.p.) was 107%. For the same molecule, the “T/C (%)” value (murine leukemia L1210; 12.5 mg/kg i.p.) was 125%, the “T/C (%)” value (murine leukemia L1210; 25 mg/kg i.p.) was 148% and the “T/C (%)” value (murine leukemia L1210; 50 mg/kg i.p.) was 196%. For the same molecule, the “T/C (%)” value (murine leukemia L1210; 100 mg/kg i.p.) was 197%.
